Experimental data from ChEMBL document CHEMBL2203015, “Synthesis and biological evaluation of 5-aryloxypyrazole derivatives bearing a rhodanine-3-aromatic acid as potential antimicrobial agents” (Bioorg Med Chem Lett, 2012).
Converted amounts (≈) assume the structure as drawn. The source made the active and inactive calls. The rule behind the calls is not given here.

Legend:
Staphylococcus aureus [1] = experiment: Potency index, ratio of MIC for norfloxacin to MIC for compound against multidrug-resistant Staphylococcus aureus CCARM 3506 incubated for 24 hrs serial dilution method; assay type: functional
Staphylococcus aureus [2] = experiment: Potency index, ratio of MIC for norfloxacin to MIC for compound against quinolone-resistant Staphylococcus aureus CCARM 3519 incubated for 24 hrs serial dilution method; assay type: functional
Staphylococcus aureus [3] = experiment: Potency index, ratio of MIC for oxacillin to MIC for compound against multidrug-resistant Staphylococcus aureus CCARM 3506 incubated for 24 hrs serial dilution method; assay type: functional
Staphylococcus aureus [4] = experiment: Antibacterial activity against quinolone-resistant Staphylococcus aureus CCARM 3505 incubated for 24 hrs serial dilution method; assay type: functional; details: CCARM 3505, 24 h
Staphylococcus aureus [5] = experiment: Potency index, ratio of MIC for oxacillin to MIC for compound against quinolone-resistant Staphylococcus aureus CCARM 3505 incubated for 24 hrs serial dilution method; assay type: functional
Staphylococcus aureus [6] = experiment: Antibacterial activity against multidrug-resistant Staphylococcus aureus CCARM 3167 incubated for 24 hrs serial dilution method; assay type: functional; details: CCARM 3167, 24 h
Staphylococcus aureus [7] = experiment: Potency index, ratio of MIC for norfloxacin to MIC for compound against multidrug-resistant Staphylococcus aureus CCARM 3167 incubated for 24 hrs serial dilution method; assay type: functional
Staphylococcus aureus [8] = experiment: Potency index, ratio of MIC for oxacillin to MIC for compound against quinolone-resistant Staphylococcus aureus CCARM 3519 incubated for 24 hrs serial dilution method; assay type: functional
Staphylococcus aureus [9] = experiment: Antibacterial activity against Staphylococcus aureus RN 4220 incubated for 24 hrs serial dilution method; assay type: functional; details: RN 4220, 24 h
Staphylococcus aureus [10] = experiment: Antibacterial activity against quinolone-resistant Staphylococcus aureus CCARM 3519 incubated for 24 hrs serial dilution method; assay type: functional; details: CCARM 3519, 24 h
Escherichia coli [11] = experiment: Antibacterial activity against Escherichia coli 1356 incubated for 24 hrs serial dilution method; assay type: functional; details: Escherichia coli, 1356, 24 h
Staphylococcus aureus [12] = experiment: Potency index, ratio of MIC for oxacillin to MIC for compound against multidrug-resistant Staphylococcus aureus CCARM 3167 incubated for 24 hrs serial dilution method; assay type: functional
Staphylococcus aureus [13] = experiment: Antibacterial activity against Staphylococcus aureus KCTC 503 incubated for 24 hrs serial dilution method; assay type: functional; details: KCTC 503, 24 h
Staphylococcus aureus [14] = experiment: Potency index, ratio of MIC for norfloxacin to MIC for compound against quinolone-resistant Staphylococcus aureus CCARM 3505 incubated for 24 hrs serial dilution method; assay type: functional
Staphylococcus aureus [15] = experiment: Antibacterial activity against Staphylococcus aureus KCTC 209 incubated for 24 hrs serial dilution method; assay type: functional; details: KCTC 209, 24 h
Staphylococcus aureus [16] = experiment: Antibacterial activity against multidrug-resistant Staphylococcus aureus CCARM 3506 incubated for 24 hrs serial dilution method; assay type: functional; details: CCARM 3506, 24 h
Staphylococcus aureus [17] = experiment: Antibacterial activity against multidrug-resistant Staphylococcus aureus CCARM 3506 at 64 ug/ml incubated for 24 hrs serial dilution method; assay type: functional, organism-based
Staphylococcus aureus [18] = experiment: Antibacterial activity against Staphylococcus aureus RN 4220 at 64 ug/ml incubated for 24 hrs serial dilution method; assay type: functional, organism-based
Staphylococcus aureus [19] = experiment: Antibacterial activity against quinolone-resistant Staphylococcus aureus CCARM 3505 at 64 ug/ml incubated for 24 hrs serial dilution method; assay type: functional, organism-based
Escherichia coli [20] = experiment: Antibacterial activity against Escherichia coli 1356 at 64 ug/ml incubated for 24 hrs serial dilution method; assay type: functional, organism-based
Staphylococcus aureus [21] = experiment: Antibacterial activity against Staphylococcus aureus KCTC 503 at 64 ug/ml incubated for 24 hrs serial dilution method; assay type: functional, organism-based
Staphylococcus aureus [22] = experiment: Antibacterial activity against quinolone-resistant Staphylococcus aureus CCARM 3519 at 64 ug/ml incubated for 24 hrs serial dilution method; assay type: functional, organism-based
Staphylococcus aureus [23] = experiment: Antibacterial activity against multidrug-resistant Staphylococcus aureus CCARM 3167 at 64 ug/ml incubated for 24 hrs serial dilution method; assay type: functional, organism-based
Staphylococcus aureus [24] = experiment: Antibacterial activity against Staphylococcus aureus KCTC 209 at 64 ug/ml incubated for 24 hrs serial dilution method; assay type: functional, organism-based

| Structure (SMILES) | Ratio (Staphylococcus aureus [1]) | Ratio (Staphylococcus aureus [2]) | MIC (Staphylococcus aureus [4]) | MIC (Staphylococcus aureus [6]) | Ratio (Staphylococcus aureus [7]) | MIC (Staphylococcus aureus [9]) | MIC (Staphylococcus aureus [10]) | MIC (Escherichia coli [11]) | MIC (Staphylococcus aureus [13]) | Ratio (Staphylococcus aureus [14]) | MIC (Staphylococcus aureus [15]) | MIC (Staphylococcus aureus [16]) | Activity (Staphylococcus aureus [17]) | Activity (Staphylococcus aureus [18]) | Activity (Staphylococcus aureus [19]) | Activity (Escherichia coli [20]) | Activity (Staphylococcus aureus [21]) | Activity (Staphylococcus aureus [22]) | Activity (Staphylococcus aureus [23]) | Activity (Staphylococcus aureus [24]) | also measured |
| --- | --- | --- | --- | --- | --- | --- | --- | --- | --- | --- | --- | --- | --- | --- | --- | --- | --- | --- | --- | --- | --- |
| Cc1ccc(Oc2c(/C=C3\SC(=S)N([C@@H](Cc4c[nH]c5ccccc45)C(=O)O)C3=O)c(C)nn2-c2ccccc2)c(C)c1 | 4 | 4 | 1 µg/mL (≈ 1.64 µM) | 1 µg/mL (≈ 1.64 µM) | 4 | 2 µg/mL (≈ 3.29 µM) | 1 µg/mL (≈ 1.64 µM) | > 64 µg/mL | > 64 µg/mL | 4 | > 64 µg/mL | 1 µg/mL (≈ 1.64 µM) |  |  |  |  |  |  |  |  | Ratio (Staphylococcus aureus [3]): 64; Ratio (Staphylococcus aureus [5]): 64; Ratio (Staphylococcus aureus [8]): 64; Ratio (Staphylococcus aureus [12]): 64 |
| Cc1ccc(Oc2c(C=O)c(C)nn2-c2ccccc2)c(C)c1 |  |  |  |  |  |  |  |  |  |  |  |  | inactive | inactive | inactive | inactive | inactive | inactive | inactive | inactive |  |
| Cc1nn(-c2ccccc2)c(Oc2c(Cl)cccc2Cl)c1C=O |  |  |  |  |  |  |  |  |  |  |  |  | inactive | inactive | inactive | inactive | inactive | inactive | inactive | inactive |  |
| Cc1ccccc1Oc1c(C=O)c(C)nn1-c1ccccc1 |  |  |  |  |  |  |  |  |  |  |  |  | inactive | inactive | inactive | inactive | inactive | inactive | inactive | inactive |  |
| Cc1nn(-c2ccccc2)c(Oc2ccccc2Cl)c1C=O |  |  |  |  |  |  |  |  |  |  |  |  | inactive | inactive | inactive | inactive | inactive | inactive | inactive | inactive |  |
| Cc1nn(-c2ccccc2)c(Oc2ccc(Cl)cc2)c1C=O |  |  |  |  |  |  |  |  |  |  |  |  | inactive | inactive | inactive | inactive | inactive | inactive | inactive | inactive |  |
| Cc1nn(-c2ccccc2)c(Oc2c(Cl)cccc2Cl)c1/C=C1\SC(=S)N([C@@H](Cc2ccccc2)C(=O)O)C1=O | 2 | 4 | 8 µg/mL (≈ 13.1 µM) | 4 µg/mL (≈ 6.55 µM) | 2 | 4 µg/mL (≈ 6.55 µM) | 8 µg/mL (≈ 13.1 µM) | > 64 µg/mL | > 64 µg/mL | 4 | > 64 µg/mL | 8 µg/mL (≈ 13.1 µM) |  |  |  |  |  |  |  |  |  |
| Cc1cccc(Oc2c(C=O)c(C)nn2-c2ccccc2)c1 |  |  |  |  |  |  |  |  |  |  |  |  | inactive | inactive | inactive | inactive | inactive | inactive | inactive | inactive |  |
| Cc1ccc(Oc2c(C=O)c(C)nn2-c2ccccc2)cc1 |  |  |  |  |  |  |  |  |  |  |  |  | inactive | inactive | inactive | inactive | inactive | inactive | inactive | inactive |  |
| Cc1nn(-c2ccccc2)c(Oc2ccc(F)cc2)c1/C=C1\SC(=S)N([C@@H](Cc2ccccc2)C(=O)O)C1=O | 2 | 4 | 8 µg/mL (≈ 14.3 µM) | 4 µg/mL (≈ 7.15 µM) | 2 | 8 µg/mL (≈ 14.3 µM) | 8 µg/mL (≈ 14.3 µM) | > 64 µg/mL | > 64 µg/mL | 4 | > 64 µg/mL | 8 µg/mL (≈ 14.3 µM) |  |  |  |  |  |  |  |  |  |
| COc1ccccc1Oc1c(C=O)c(C)nn1-c1ccccc1 |  |  |  |  |  |  |  |  |  |  |  |  | inactive | inactive | inactive | inactive | inactive | inactive | inactive | inactive |  |
| Cc1nn(-c2ccccc2)c(Oc2ccc(Br)cc2)c1C=O |  |  |  |  |  |  |  |  |  |  |  |  | inactive | inactive | inactive | inactive | inactive | inactive | inactive | inactive |  |
| Cc1nn(-c2ccccc2)c(Oc2ccc3ccccc3c2)c1C=O |  |  |  |  |  |  |  |  |  |  |  |  | inactive | inactive | inactive | inactive | inactive | inactive | inactive | inactive |  |
| Cc1nn(-c2ccccc2)c(Oc2cccc(Cl)c2)c1C=O |  |  |  |  |  |  |  |  |  |  |  |  | inactive | inactive | inactive | inactive | inactive | inactive | inactive | inactive |  |
| COc1ccc(Oc2c(/C=C3\SC(=S)N([C@@H](Cc4ccccc4)C(=O)O)C3=O)c(C)nn2-c2ccccc2)cc1 | 2 | 4 | 8 µg/mL (≈ 14 µM) | 4 µg/mL (≈ 7 µM) | 2 | 8 µg/mL (≈ 14 µM) | 8 µg/mL (≈ 14 µM) | > 64 µg/mL | > 64 µg/mL | 4 | > 64 µg/mL | 4 µg/mL (≈ 7 µM) |  |  |  |  |  |  |  |  |  |
| Cc1cccc(Oc2c(/C=C3\SC(=S)N([C@@H](Cc4ccccc4)C(=O)O)C3=O)c(C)nn2-c2ccccc2)c1 | 2 | 4 | 4 µg/mL (≈ 7.2 µM) | 4 µg/mL (≈ 7.2 µM) | 2 | 4 µg/mL (≈ 7.2 µM) | 8 µg/mL (≈ 14.4 µM) | > 64 µg/mL | > 64 µg/mL | 4 | > 64 µg/mL | 4 µg/mL (≈ 7.2 µM) |  |  |  |  |  |  |  |  |  |
| Cc1nn(-c2ccccc2)c(Oc2ccccc2)c1C=O |  |  |  |  |  |  |  |  |  |  |  |  | inactive | inactive | inactive | inactive | inactive | inactive | inactive | inactive |  |
| Cc1nn(-c2ccccc2)c(Oc2ccc(F)cc2)c1C=O |  |  |  |  |  |  |  |  |  |  |  |  | inactive | inactive | inactive | inactive | inactive | inactive | inactive | inactive |  |
| Cc1nn(-c2ccccc2)c(Oc2ccc(Cl)cc2Cl)c1C=O |  |  |  |  |  |  |  |  |  |  |  |  | inactive | inactive | inactive | inactive | inactive | inactive | inactive | inactive |  |
| Cc1nn(-c2ccccc2)c(Oc2ccccc2)c1/C=C1\SC(=S)N([C@@H](Cc2ccccc2)C(=O)O)C1=O | 2 | 4 | 8 µg/mL (≈ 14.8 µM) | 4 µg/mL (≈ 7.38 µM) | 2 | 8 µg/mL (≈ 14.8 µM) | 8 µg/mL (≈ 14.8 µM) | > 64 µg/mL | > 64 µg/mL | 4 | > 64 µg/mL | 4 µg/mL (≈ 7.38 µM) |  |  |  |  |  |  |  |  |  |
| Cc1ccccc1Oc1c(/C=C2\SC(=S)N([C@@H](Cc3ccccc3)C(=O)O)C2=O)c(C)nn1-c1ccccc1 | 2 | 4 | 8 µg/mL (≈ 14.4 µM) | 4 µg/mL (≈ 7.2 µM) | 2 | 4 µg/mL (≈ 7.2 µM) | 8 µg/mL (≈ 14.4 µM) | > 64 µg/mL | > 64 µg/mL | 4 | > 64 µg/mL | 8 µg/mL (≈ 14.4 µM) |  |  |  |  |  |  |  |  |  |
| COc1ccc(Oc2c(C=O)c(C)nn2-c2ccccc2)cc1 |  |  |  |  |  |  |  |  |  |  |  |  | inactive | inactive | inactive | inactive | inactive | inactive | inactive | inactive |  |
| Cc1nn(-c2ccccc2)c(Oc2cccc(C(F)(F)F)c2)c1C=O |  |  |  |  |  |  |  |  |  |  |  |  | inactive | inactive | inactive | inactive | inactive | inactive | inactive | inactive |  |
